pIC50: −log10 of the molar value.
biological target: T1, c-Met receptor tyrosine kinase, GST-c-Met(969-1390) (Homo sapiens, UniProt P08581); assay: EPK c-Met profiling assay (LanthaScreen TR-FRET kinase assay); assay type: biochemical; conditions: 2 μM ATP, 0.3 nM enzyme, 60 minutes at room temperature
T1 construct: made in house
Summary of the method: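 Recombinant GST-c-Met(969-1390) cytoplasmic domain, 0.3 nM, phosphorylating 50 nM Fluorescein-PolyEAY with 2 μM ATP, 10 mM MgCl2, 3 mM MnCl2, 60 min at room temperature. EDTA-stopped; phosphoproduct detected by TR-FRET with Tb-PY20 antibody, end-point read. Final compound 0.003-10 μM over 8 concentrations.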

T1 sequence (P08581 969-1390): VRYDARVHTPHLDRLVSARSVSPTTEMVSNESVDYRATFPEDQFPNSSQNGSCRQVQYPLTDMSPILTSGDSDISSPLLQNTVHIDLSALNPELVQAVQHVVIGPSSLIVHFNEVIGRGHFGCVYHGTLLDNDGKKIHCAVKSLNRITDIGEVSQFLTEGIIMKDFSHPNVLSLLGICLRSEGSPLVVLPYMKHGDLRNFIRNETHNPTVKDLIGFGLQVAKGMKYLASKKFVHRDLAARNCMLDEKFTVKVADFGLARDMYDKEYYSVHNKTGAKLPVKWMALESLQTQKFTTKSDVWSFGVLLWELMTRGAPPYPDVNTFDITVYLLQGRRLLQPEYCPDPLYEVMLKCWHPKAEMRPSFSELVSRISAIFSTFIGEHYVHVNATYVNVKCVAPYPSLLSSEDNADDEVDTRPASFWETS

Point of comparison: `CC(=O)N1CCN(c2ccc3ncc([C@@H](C)c4c(F)cc5ncccc5c4F)n3n2)CC1` [Example 11, 1-(4-{3-[(S)-1-(5,7-Difluoro-quinolin-6-yl)-ethyl]-imidazo[1,2-b]pyridazin-6-yl}-piperazin-1-yl)ethanone], pIC50 8.44. Against it:
- C[C@@H](c1c(F)cc2ncccc2c1F)c1cnc2ccc(N3CCNC(=O)C3)nn12 (single isomer, unassigned) [Example 5] — higher, > 8.52
- C[C@@H](c1c(F)cc2ncccc2c1F)c1cnc2ccc(N3CCN(C)C(=O)C3)nn12 [Example 2, 4-{3-[(S)-1-(5,7-Difluoro-quinolin-6-yl)-ethyl]-imidazo[1,2-b]pyridazin-6-yl}-1-methyl-piperazin-2-one] — higher, > 8.52
- C[C@@H](c1c(F)cc2ncccc2c1F)c1cnc2ccc(N3CCNCC3)nn12 [Example 7, 5,7-Difluoro-6-[(S)-1-(6-piperazin-1-yl-imidazo[1,2-b]pyridazin-3-yl)-ethyl]-quinoline] — within 0.2 log units, 8.39
- C[C@@H](c1cc2cnn(C)c2cc1F)c1cnc2ccc(N3CCNC(=O)C3)nn12 [Example 28, 4-{3-[(S)-1-(6-Fluoro-1-methyl-1H-indazol-5-yl)-ethyl]-imidazo[1,2-b]pyridazin-6-yl}-piperazin-2-one] — 0.67 log units lower, 7.77
